These results are taken from US7279302B2, “Methods for identifying herbicidal compounds” (Bayer CropScience S.A., priority 2000, dated 2007).

What all share (format): biochemical
For assay [1], the target named is T1, TyrA-ATc arogenate dehydrogenase (Arabidopsis thaliana, UniProt Q944B6, V36M).
T1 construct: introduces an ATG initiating codon and an Nde I restriction site (underlined) at position 174 from the first ATG codon (V58M); made in house; host or cells: Escherichia coli AT2471 (pET21a(+)), soluble crude extract
Nature of the assay: arogenate dehydrogenase activity, spectrophotometric monitoring at 340 nm, recombinant TyrA-ATc. The conditions noted are these: for Michaelis constant: TyrA-Atc, Km for substrate/cofactor; for inhibition of arogenate dehydrogenase activity: TyrA-ATc, 1 mM. As for the experimental part:
(§1) The arogenate dehydrogenase activity is measured at 25° C. by spectrophotometric monitoring, at 340 nm, of the formation of NADH or NADPH in a solution containing 50 mM of Tris-HCl, pH 8.6, 300 μm of arogenate and 1 mM of NAD or […] in a total volume of 200 μl.
(§2) Eshcerichia coli AT2471 cells were transformed with each one of the plasmids pET21-TyrA-AT obtained in example 3, and then cultured at 37° C. in 2 liters of Luria-Bertani medium supplemented with 100 μg/ml of carbenicillin. When the culture had reached the equivalent of an absorbance at 600 nm (A600) of 0.6, 1 mM of isopropyl-β-D-thiogalactoside was added to the culture medium in order to induce recombinant protein synthesis. The cells were then cultured for 16 h at 28° C., harvested, and then centrifuged for 20 min at 40 000 g. The pellet was then resuspended in a 50 mM Tris-HC1 buffer, pH 7.5, containing 1 mM EDTA, 1 mM dithiothreitol, 1 mM benzamidine HCl and 5 mM aminocaproic acid, and then sonicated (100 pulses every 3 seconds at power 5) with a Vibra-Cell disrupter (Sonics and Materials, Danbury, Conn., USA). The crude extracts thus obtained were then centrifuged for 20 min at 40 000 g, and the supernatants were used directly for the enzyme assays.
(§3) The biochemical characterization of the recombinant arogenate dehydrogenase enzymes was carried out using the soluble protein extracts of the transformed E. coli strains. The arogenate dehydrogenase activity was measured according to the method described in example 4. […] No arogenate dehydrogenase activity was detected in the presence of NAD, and no prephenate dehydrogenase activity was detected whatever the cofactor used (NADP or NAD) and whatever the protein tested (TyrA-ATc, TyrA-AT1 or TyrA-AT2). […] Each one of these enzymes has a Michaelis-Menten-type behavior, and their Km value for arogenate and NADP is relatively the same (FIGS. 2 and 3). The Michaelis constants for NADP are, respectively, 40 μM for TyrA-Atc, 60 μM for TyrA-AT1, and 20 μM for TyrA-AT2. The Michaelis constants for arogenate are, respectively, 70 μM for TyrA-Atc, 45 μM for TyrA-AT1, and 45 μM for TyrA-AT2. In addition, like the other plant arogenate dehydrogenases (Byng et al., 1981, Phytochemistry 6, 1289-1292; Connelly and Conn, 1986, Z. Naturforsch 41c, 69-78; Gaines et al., 1982 Planta 156, 233-240), the Arabidopsis arogenate dehydrogenases are all very sensitive to tyrosine, the product of the enzyme reaction, and insensitive to 1 mM of phenylalanine and 1 mM of p-hydroxyphenylpyruvate.

Assay [2] addresses T2, TyrA-AT1 arogenate dehydrogenase (Arabidopsis thaliana, UniProt Q944B6).
T2 construct: recombinant proteins were observed only with the constructs encoding the proteins M58-TyrA-Atc and M58-TyrA-AT1; made in house; host or cells: Escherichia coli AT2471 (pET21a(+)), soluble crude extract
T2 sequence (Q944B6 with tags, fused parts or gaps): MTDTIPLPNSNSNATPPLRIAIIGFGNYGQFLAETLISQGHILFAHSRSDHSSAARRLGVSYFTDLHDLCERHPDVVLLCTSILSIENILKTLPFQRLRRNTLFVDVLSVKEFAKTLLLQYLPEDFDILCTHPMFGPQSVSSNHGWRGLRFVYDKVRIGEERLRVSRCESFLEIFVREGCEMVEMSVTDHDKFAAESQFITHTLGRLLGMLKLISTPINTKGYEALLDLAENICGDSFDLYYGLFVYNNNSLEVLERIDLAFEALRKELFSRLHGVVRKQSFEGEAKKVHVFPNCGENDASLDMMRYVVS
The assay can be described thus: arogenate dehydrogenase activity, spectrophotometric monitoring at 340 nm, recombinant TyrA-AT1. The conditions noted are these: for Michaelis constant: Km for substrate/cofactor; for inhibition of arogenate dehydrogenase activity: 1 mM. As for the experimental part:
as §1, §2, §3

In assay [3] the target is T3, TyrA-AT2 arogenate dehydrogenase (Arabidopsis thaliana, UniProt Q944B6).
T3 construct: at the ATG codon of the second open reading frame (at position 1081 from the first ATG codon); made in house; host or cells: Escherichia coli AT2471 (pET21a(+)), soluble crude extract
T3 sequence (Q944B6 339-640): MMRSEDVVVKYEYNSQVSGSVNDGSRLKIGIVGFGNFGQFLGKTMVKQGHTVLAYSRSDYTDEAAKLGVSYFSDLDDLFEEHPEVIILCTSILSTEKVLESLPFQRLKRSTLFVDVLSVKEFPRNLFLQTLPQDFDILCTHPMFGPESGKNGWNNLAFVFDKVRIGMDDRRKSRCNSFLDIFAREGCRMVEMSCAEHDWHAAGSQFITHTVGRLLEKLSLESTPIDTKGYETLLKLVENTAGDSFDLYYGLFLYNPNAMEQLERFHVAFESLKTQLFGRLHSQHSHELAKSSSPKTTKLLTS
The assay can be described thus: arogenate dehydrogenase activity, spectrophotometric monitoring at 340 nm, recombinant TyrA-AT2. The conditions noted are these: for Michaelis constant: Km for substrate/cofactor; for inhibition of arogenate dehydrogenase activity: 1 mM. As to the method: as §1, §2, §3

In assay [4] the test system is Synechocystis arogenate dehydrogenase. Nature of the assay: arogenate dehydrogenase activity, spectrophotometric monitoring at 340 nm, recombinant Synechocystis enzyme. The settings on record: for Michaelis constant: Km for substrate/cofactor. As to the method:
as §1, §2
The sequence of the gene encoding the A. thaliana arogenate dehyrogenase identified in example 1 (TyrA) made it possible to identify an arogenate dehydrogenase gene in the bacterium Synechocystis (accession number: 1652956). This gene was originally described as encoding a “prephenate dehydrogenase” enzyme. It was isolated from a Synechocystis genomic library and the enzyme was produced in the same way as the A. thaliana enzyme, according to the protocol described in example 5 . […] The arogenate dehydrogenase activity was measured according to the method described in example 4 . […] No arogenate dehydrogenase activity was detected in the presence of NAD, and no prephenate dehydrogenase activity was detected whatever the cofactor used (NADP or NAD). […]

For assay [5], the target named is T4, TyrA-ATc arogenate dehydrogenase (Arabidopsis thaliana, UniProt Q944B6).
T4 construct: introduces an ATG initiating codon and an Nde I restriction site (underlined) at position 174 from the first ATG codon (V58M); made in house; host or cells: Escherichia coli AT2471 (pET21a(+)), soluble crude extract
The assay can be described thus: arogenate dehydrogenase activity, spectrophotometric monitoring at 340 nm, recombinant TyrA-ATc. The conditions noted are these: TyrA-Atc; inhibition competitive with respect to arogenate. As for the experimental part:
as §1, §2, §3

[6] abbreviates: inhibition competitive with respect to arogenate.

T1 sequence (Q944B6 36-640 V36M): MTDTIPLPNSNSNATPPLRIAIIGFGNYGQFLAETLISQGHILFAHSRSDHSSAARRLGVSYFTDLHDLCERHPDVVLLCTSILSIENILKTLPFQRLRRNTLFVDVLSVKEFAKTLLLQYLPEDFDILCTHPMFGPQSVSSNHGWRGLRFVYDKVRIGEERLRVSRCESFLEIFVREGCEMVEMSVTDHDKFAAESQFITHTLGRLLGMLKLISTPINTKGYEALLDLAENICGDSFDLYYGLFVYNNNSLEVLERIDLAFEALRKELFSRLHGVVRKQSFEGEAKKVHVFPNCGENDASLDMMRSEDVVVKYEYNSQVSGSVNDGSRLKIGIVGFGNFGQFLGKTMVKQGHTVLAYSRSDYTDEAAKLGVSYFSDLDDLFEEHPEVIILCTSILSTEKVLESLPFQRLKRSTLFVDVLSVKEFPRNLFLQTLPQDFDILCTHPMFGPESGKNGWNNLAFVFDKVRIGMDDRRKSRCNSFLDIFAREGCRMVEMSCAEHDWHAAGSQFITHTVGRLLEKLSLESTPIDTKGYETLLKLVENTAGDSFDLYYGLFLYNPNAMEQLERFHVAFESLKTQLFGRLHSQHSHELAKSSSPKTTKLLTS
T4 sequence (Q944B6 36-640 V36M): as above

Turning to `NC(=O)c1ccc[n+]([C@@H]2O[C@H](COP(=O)([O-])OP(=O)(O)OC[C@H]3O[C@@H](n4cnc5c(N)ncnc54)[C@H](OP(=O)(O)O)[C@@H]3O)[C@@H](O)[C@H]2O)c1` [NADP], the Michaelis constant stood at 40 µM in assay [1], 60 µM in assay [2], 20 µM in assay [3] and 6 µM in assay [4].
The like results for `N[C@@H](CC1(C(=O)O)C=CC(O)C=C1)C(=O)O` (stereo partly drawn) [arogenate] were, in that order, 70 µM, 45 µM, 45 µM and 107 µM.
With `O=C(O)C(=O)Cc1ccc(O)cc1` [p-hydroxyphenylpyruvate], the “inhibition of arogenate dehydrogenase activity” value (shortened to “inhibition”) in assay [1], in assay [2] and in assay [3] was “insensitive” throughout.
As to `N[C@@H](Cc1ccccc1)C(=O)O` [phenylalanine], the “inhibition” value in assay [1], in assay [2] and in assay [3] was “insensitive” each time.
Regarding `O=C(O)C(=O)CC1(C(=O)O)C=CC(O)C=C1` (stereo not drawn) [prephenate], the “inhibition” value in assay [1], in assay [2], in assay [3] and in assay [4] (1 mM) was “does not inhibit” in each case.
As a reminder, the Ki is a measure of affinity in units of concentration, obtained from inhibition or displacement. Turning to `N[C@@H](Cc1ccc(O)cc1)C(=O)O` [tyrosine], the Ki worked out at 14 µM in assay [5], 8 µM in assay [2] (setting [6]) and 12 µM in assay [3] (setting [6]).
